What all share (format): in vitro ADME
One series has as its target T1, CYP2C8 (human) (Homo sapiens, UniProt P10632).
T1 construct: purchased BD Gentest (Switzerland); host or cells: baculovirus expression system
T1 sequence (P10632 1-490): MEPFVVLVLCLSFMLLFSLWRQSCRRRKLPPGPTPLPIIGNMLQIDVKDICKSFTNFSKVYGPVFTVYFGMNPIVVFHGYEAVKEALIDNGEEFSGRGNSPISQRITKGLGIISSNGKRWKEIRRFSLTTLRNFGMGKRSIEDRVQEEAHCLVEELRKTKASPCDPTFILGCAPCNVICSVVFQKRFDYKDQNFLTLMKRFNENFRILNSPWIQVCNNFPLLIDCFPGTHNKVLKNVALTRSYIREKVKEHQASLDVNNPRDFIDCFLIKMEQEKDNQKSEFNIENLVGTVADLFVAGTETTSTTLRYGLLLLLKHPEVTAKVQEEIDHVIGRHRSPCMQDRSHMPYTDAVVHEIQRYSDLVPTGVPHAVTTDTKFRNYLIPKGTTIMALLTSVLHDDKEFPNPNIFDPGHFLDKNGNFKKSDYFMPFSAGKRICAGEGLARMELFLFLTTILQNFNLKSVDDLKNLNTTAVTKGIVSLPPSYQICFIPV
In words: Metabolism by isolated human CYP2C8. As to conditions: petasins 20 μM, 60 min. An excerpt: (§1) The metabolism of petasin, isopetasin, and neopetasin was investigated using three different S9 fractions originating from three different species (isolated from rat, dog, and human liver homogenates containing cytochrome P450 isoforms) and isolated cytochromes of two different species (human and rat; rat analogues of the respective human cytochromes were used). For the expression of the different cytochromes, a baculovirus expression system was used according to supplier's manual. The S9 fractions or respectively single P450 cytochromes were used to mimic the liver metabolism by in vitro incubation.
(§2) The assay was carried out in triplicate in 1.5 ml glass vials with a final concentration of 20 μM of petasin, isopetasin, and neopetasin. The incubation was performed in a 37°C warm water bath. S9 fractions were thawed slowly on ice. Four different approaches were pursued by testing: (a) petasin, neopetasin, and isopetasin before (0 min) and after 60 min incubations with S9 fraction; (b) petasin, neopetasin, and isopetasin without S9 fraction after 60 min incubation; (c) vehicle as negative controls; and (d) cofactors of S9 fraction after 60‐min incubation.
(§3) A mixture of NADPH regeneration systems A (20‐fold) and B (100‐fold), phosphate buffer, and H2O was added, preincubated at 37°C, and shaken gently for 5 min. Afterwards, the recommended amount between 10 and 40 pmol/ml of enzyme or enzyme mixture was added according to manufacturer's instruction and incubated for further 60 min at 37°C and gently shaken. Afterwards, the reactions were stopped by addition of acetonitrile (400 μl). For the control sample, acetonitrile was added at 0 min incubation. The samples were centrifuged for 3 min at 10,000 × g. The supernatant was transferred to high‐performance liquid chromatography vials and analyzed by ultra‐performance liquid chromatography mass spectrometry (UPLC/MS). The UPLC analysis was performed with an UPLC Acquity H Class from Waters (Waters Corporation, Switzerland) including a quaternary high‐pressure gradient pump, an automatic sample injector, and a column thermostat. […]

The nature of series [1]: Incubation without S9 fraction (solvent or cofactors only, negative controls). The conditions noted are these: 20 μM, 60 min, data not shown; for metabolism with cofactors of S9 fraction only (negative control): cofactor only; for metabolism with solvent (negative control): solvent only. As for the experimental part: as §2
A mixture of NADPH regeneration systems A (20‐fold) and B (100‐fold), phosphate buffer, and H2O was added, preincubated at 37°C, and shaken gently for 5 min. Afterwards, the recommended amount between 10 and 40 pmol/ml of enzyme or enzyme mixture was added according to manufacturer's instruction and incubated for further 60 min at 37°C and gently shaken. Afterwards, the reactions were stopped by addition of acetonitrile (400 μl). For the control sample, acetonitrile was added at 0 min incubation. The samples were centrifuged for 3 min at 10,000 × g. The supernatant was transferred to high‐performance liquid chromatography vials and analyzed by ultra‐performance liquid chromatography mass spectrometry (UPLC/MS). The UPLC analysis was performed with an UPLC Acquity H Class from Waters (Waters Corporation, Switzerland) including a quaternary high‐pressure gradient pump, an automatic sample injector, and a column thermostat. Chromatographic separation was achieved on an Acquity BEH C18, […], 50 × 2.1 mm column (Waters, Switzerland). The mobile phase consisted of 0.1% formic acid (A) and acetonitrile (B). The initial gradient condition was 10% (B) followed by a step to 90% (B) until 6.0 min. The column temperature was adjusted to 40°C. The flow rate was 0.5 ml/min and the injection volume 5 μl. The mass spectrometry was performed in positive electrospray mode using an ACQUITY QDa mass detector (Waters Corporation, Switzerland). The single ion recording was set to 317.2 Da.

The next series has as its target T2, CYP1A2 (human) (Homo sapiens, UniProt P05177).
T2 construct: purchased BD Gentest (Switzerland); host or cells: baculovirus expression system
T2 sequence (P05177 1-516): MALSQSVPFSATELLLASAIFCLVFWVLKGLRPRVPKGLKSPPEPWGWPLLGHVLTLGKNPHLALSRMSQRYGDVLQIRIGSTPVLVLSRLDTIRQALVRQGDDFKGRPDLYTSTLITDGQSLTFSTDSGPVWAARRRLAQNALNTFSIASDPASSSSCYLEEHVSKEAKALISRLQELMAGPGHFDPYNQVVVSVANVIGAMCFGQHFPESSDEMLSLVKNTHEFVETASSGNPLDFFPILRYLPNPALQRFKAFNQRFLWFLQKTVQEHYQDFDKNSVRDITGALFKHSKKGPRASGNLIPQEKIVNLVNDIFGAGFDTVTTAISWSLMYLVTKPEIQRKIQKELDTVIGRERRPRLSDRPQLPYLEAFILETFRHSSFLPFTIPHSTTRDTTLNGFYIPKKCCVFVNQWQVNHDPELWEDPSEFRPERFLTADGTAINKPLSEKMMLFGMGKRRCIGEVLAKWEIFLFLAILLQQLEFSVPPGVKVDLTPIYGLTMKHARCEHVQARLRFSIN
Put plainly: Metabolism by isolated human CYP1A2. As to conditions: petasins 20 μM, 60 min.
From the text: as §1, §2, §3

In the next series the target is T3, CYP3A1 (rat) (Rattus norvegicus, UniProt P04800).
T3 construct: purchased BD Gentest (Switzerland); host or cells: baculovirus expression system
T3 sequence (P04800 1-504): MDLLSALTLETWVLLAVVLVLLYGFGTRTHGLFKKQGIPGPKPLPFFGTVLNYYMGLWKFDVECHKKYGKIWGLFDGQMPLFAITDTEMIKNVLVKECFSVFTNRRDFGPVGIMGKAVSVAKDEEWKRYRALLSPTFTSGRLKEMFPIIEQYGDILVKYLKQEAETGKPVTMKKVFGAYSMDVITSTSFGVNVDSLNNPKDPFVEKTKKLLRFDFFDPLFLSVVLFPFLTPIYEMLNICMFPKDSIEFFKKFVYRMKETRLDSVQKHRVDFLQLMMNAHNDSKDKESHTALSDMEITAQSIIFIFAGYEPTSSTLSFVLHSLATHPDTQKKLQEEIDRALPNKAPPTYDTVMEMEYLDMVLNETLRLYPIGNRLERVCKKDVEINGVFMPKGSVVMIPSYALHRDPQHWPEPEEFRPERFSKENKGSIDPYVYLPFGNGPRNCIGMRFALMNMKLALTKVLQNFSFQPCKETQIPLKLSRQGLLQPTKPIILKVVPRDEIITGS
Put plainly: Metabolism by isolated rat CYP3A1. The conditions noted are these: petasins 20 μM, 60 min.
From the text: as §1
The assay was carried out in triplicate in 1.5 ml glass vials with a final concentration of 20 μM of petasin, isopetasin, and neopetasin. The incubation was performed in a 37°C warm water bath. S9 fractions were thawed slowly on ice. […]
A mixture of NADPH regeneration systems A (20‐fold) and B (100‐fold), phosphate buffer, and H2O was added, preincubated at 37°C, and shaken gently for 5 min. […] The supernatant was transferred to high‐performance liquid chromatography vials and analyzed by ultra‐performance liquid chromatography mass spectrometry (UPLC/MS). […]

Molecules are shown by their SMILES.

On to `C/C=C(/C)C(=O)O[C@@H]1CCC2=CC(=O)C(=C(C)C)C[C@]2(C)[C@H]1C` [isopetasin], for which, on CYP2C8 (human), the “extent of metabolism by CYP2C8 (human)” value is 44%. Also, in series [1], the “metabolism with cofactors of S9 fraction only (negative control)” value is given as below 1% and the “metabolism with solvent (negative control)” value (shortened to “metabolism with solvent”) is below 1%. Besides, the “extent of metabolism by CYP1A2 (human)” value on CYP1A2 (human) came to 21%.
`C=C(C)[C@H]1C[C@@]2(C)C(=CC1=O)CC[C@@H](OC(=O)/C(C)=C\C)[C@@H]2C` [neopetasin]: at CYP2C8 (human), the “extent of metabolism by CYP2C8 (human)” value was 71%. Moreover, in series [1], the “metabolism with cofactors of S9 fraction only (negative control)” value is on record as below 1% and the “metabolism with solvent” value is below 1%. Also, the “extent of metabolism by CYP1A2 (human)” value at CYP1A2 (human) is below 1%. For the same compound, the “extent of metabolism by CYP3A1 (rat)” value at CYP3A1 (rat) turned out to be 78%.
As to `C=C(C)[C@@H]1C[C@@]2(C)C(=CC1=O)CC[C@@H](OC(=O)/C(C)=C\C)[C@@H]2C` [petasin], the “extent of metabolism by CYP2C8 (human)” value at CYP2C8 (human) came to 54%. Further, in series [1], the “metabolism with cofactors of S9 fraction only (negative control)” value was 10% and the “metabolism with solvent” value is below 1%. Besides, the “extent of metabolism by CYP1A2 (human)” value at CYP1A2 (human) is on record as 4%. For the same compound, the “extent of metabolism by CYP3A1 (rat)” value at CYP3A1 (rat) turned out to be 37%.

Source of the values: article PMC7004140, “In vitro hepatotoxicity of Petasites hybridus extract (Ze 339) depends on the concentration, the cytochrome activity of the cell system, and the species used” (Phytotherapy Research, 2019).
